According to patent US5756546A (priority 1994, dated 1998):
Structures can show the parent of a compound that is named as a salt.

Assays:
[1] = known salts in solution; cited from earlier work
[2] = whether or not linked with L-arginine

Row | Structure (SMILES) | pH imposed in solution (in words) [1] | pH imposed in solution compared with the alkali metal salts (in words) [2]
1 | CS(=O)(=O)Nc1ccc([N+](=O)[O-])cc1Oc1ccccc1 [sodium salt of nimesulide] | relatively alkaline pH | 
2 | CS(=O)(=O)Nc1ccc([N+](=O)[O-])cc1Oc1ccccc1 [nimesulide-L-lysine salt] |  | markedly less alkaline pH
